[L-RNA-N] = L-ribonucleotide (mirror-image RNA) (N: the base); {FAM} = fluorescein label
What was measured:
Format in all cases: biochemical
[1] = tested on: L-target (Seq-ID 1 RNA with L-nucleotides); experiment: Cleavage assay: L-target with D-ribozyme; conditions: FIG. 2; MgCl2 0-25 mM; 0.2 μM target with 2 μM ribozyme
Procedure: (§1) The activities of L-ribozymes and D-ribozymes were measured in various conditions. The basic conditions were as follows. […] in 50 mM Tris-HCl buffer, pH 7.5, at 20° C. for 2 hours (ribozymes/target ratio therefore 10:1, 1:1 and 1:10). Before the reaction, target RNA and ribozyme were denatured for 2 minutes at 70° C. and cooled slowly (1° C./min) in the heating unit to 25° C. The influence of the Mg^2+ ions at concentration from 0.1 to 25 mM was investigated. Cleavage products were separated on 20% polyacrylamide gel electrophoresis in the presence of 8 M urea in 0.09 M Tris-borate buffer, pH 8.3. The fluorescence was analyzed on Phosphoimager Fuji Film FLA 5100. The data were obtained with the program Fuji Analysis Program. Diagrams were prepared with Excel.
(§2) The following were prepared as target sequences by way of contract synthesis by the company ChemGenes Corporation, Wilmington, USA: • Seq-ID 1: 5′-FAM-ACAGUCGGUCGCC-3′ (RNA, both with D-nucleotides and with L-nucleotides) and • Seq-ID 2: 5′-FAM-ACAGTCGGTCGCC-3′ (DNA, both with D-nucleotides and with L-nucleotides).
All synthesis products were labeled with fluorescein at the 5′-end. […]

[2] = tested on: D-target (Seq-ID 1 RNA with D-nucleotides); experiment: Cleavage assay: D-target with D-ribozyme; conditions: FIG. 4B; MgCl2 1-25 mM; 10-fold ribozyme excess
Procedure: as §1, §2
(§3) All synthesis products were labeled with fluorescein at the 5′-end.

[3] = tested on: D-target (Seq-ID 1 RNA with D-nucleotides); experiment: Cleavage assay: D-target with L-ribozyme
Procedure: as §1, §2, §3
C is the control (L-target+L-ribozyme), tracks 1 to 5 are the various MgCl2 concentrations given in the diagram (0-25 mM) for target without ribozyme, tracks 6 to 9 0.2 μM target with 2 μM ribozyme.

[4] = tested on: L-target (Seq-ID 1 RNA with L-nucleotides); experiment: Cleavage assay: L-target with L-ribozyme
Procedure: as §1, §2, §3

[5] = tested on: L-target; experiment: Cleavage of L-target by L-ribozyme in human serum; conditions: FIG. 12; conditions of human serum

Row | Substance | cleavage of L-target by D-ribozyme [1] | proportion of cleavage products of D-target with D-ribozyme as a function of MgCl2 concentration [2] | cleavage of D-target by L-ribozyme ([3]; FIG. 2, MgCl2 0-25 mM, 0.2 μM target with 2 μM ribozyme) | proportion of cleavage products of the D-target by L-ribozyme as a function of MgCl2 concentration ([3]; FIG. 2C, increasing Mg concentration) | proportion of cleavage products of the D-target by L-ribozyme over time ([3]; FIG. 3, 10 mM MgCl2, times 0 to 256 min, compared with L-target/D-ribozyme) | proportion of cleavage products of L-target with L-ribozyme as a function of MgCl2 concentration ([4]; FIG. 4B, MgCl2 1-25 mM, 10-fold ribozyme excess) | cleavage of L-target by L-ribozyme ([4]; FIGS. 4 to 11, all usual conditions (0.1-25 mM MgCl2, ribozyme excess to deficit)) | turnover rates of L-ribozyme with L-target ([4]; FIGS. 4 to 11, relative to D-ribozyme with D-target) | cleavage of L-target by L-ribozyme in human serum [5]
1 | 5′-FAM-GGCGACCCUGAUGAGGCCGAAAGGCCGAAACUGU-3′ (RNA, 5' {FAM}, backbone not given here) [D-ribozyme] | does not cleave | increases with increasing Mg concentration | – | – | – | – | – | – | –
2 | 5′-FAM-GGCGACCCUGAUGAGGCCGAAAGGCCGAAACUGU-3′ (all [L-RNA-N], 5' {FAM}, backbone not given here) [L-ribozyme] | – | – | a notable reaction certainly occurs | increases with increasing Mg concentration | increases with time | increases with increasing Mg concentration | effectively cuts | at least correspond to those of a D-ribozyme with a D-target | functions effectively

Source: US20150140020A1, “PHARMACEUTICAL COMPOSITION FOR TREATING ADVERSE REACTIONS DUE TO ADMINISTRATION OF SPIEGELMERS” (Freie Universitaet Berlin, priority 2009, published 2015)
